Laboratory results taken from patent US9458141B2, “Low molecular weight thyroid stimulating hormone receptor (TSHR) agonists” (The United States of America, as represented by the …, priority 2008, dated 2016).
Read-outs that look alike come from different tables or passages of the source.

Biological target: T1, human TSHR (Homo sapiens, UniProt P16473)
T1 construct: expressed in transfected cells
Test: Homogeneous Time Resolved Fluorescence (HTRF) cAMP assay, TSHR cell line
Type: cell-based
Conditions: for Maximum Activity compared to TSH: 100% activity = response of 30 mU/ml TSH, 0% = DMSO control, in %; for AC50: TSHR cell line, 30 minute incubation; for Emax: read-out: Maximum Activity compared to TSH, 100% activity = response of 30 mU/ml TSH, 0% = DMSO control
Description: Generation of Stable Cell-Lines Expressing TSHR, LHCGR or FSHR.
cDNA for human TSHR was amplified by PCR from hTSHR-pSVL (1) and inserted into the pcDNA3.1(−)/hygromycin vector using restriction sites XhoI and BamHI. cDNA for human LHCGR was amplified by PCR from hLHR-pGS5 (2) and was inserted into the pcDNA3.1(+)/hygromycin vector using restriction sites BamHI and XhoI. The FSHR cDNA in pcDNA3.1 was obtained from the Missouri S&T cDNA Resource Center (www.cDNA.org) and was subcloned into the pcDNA3.1(−)/hygromycin vector. Constructs were confirmed by sequencing (MWG Biotech). HEK-EM 293 cells were transfected with the cDNA of TSHR, LHCGR or FSHR using FuGENE 6 Transfection reagent (Roche Diagnostics) according to the manufacturer's protocol. Two days after transfection cells were passaged and grown in Dulbecco's modified Eagle's Medium (DMEM) supplemented with 10% fetal bovine serum, 100 units/ml penicillin and 10 μg/ml streptomycin (Life Technologies Inc.) and with hygromycin (250 μg/ml) as a selection marker. After 7 to 10 days hygromycin-resistant clones were selected, and after a few days of further growth submitted for a cAMP assay to identify clones that stably express the appropriate receptor. Cell Culture. Cells stably expressing TSHR, LHCGR or FSHR and parental HEK 293 cells were maintained in DMEM medium containing 10% FBS, 100 units/ml Penicillin, 100 μg/ml Streptomycin, at 37° C. in 5% CO2. For the cells lines stably expressing TSHR, LHCGR or FSHR, additional 250 μg/ml Hygromycin was added during the cell culture. The cells were seeded at a density of 3 to 4 million cells in a T175 flask containing 35 ml of media and were allowed to grow for 3 days to reach 80-90% confluence. A flask of HEK 293 cells at this density generally yielded 30 million cells total. Homogeneous Time Resolved Fluorescence (HTRF) cAMP Assay. Compounds were assayed using a HTRF cAMP detection kit (Cisbio, Bedford, Mass.) on both TSHR cell line and parental cell line. Briefly, 750 cells were plated in 2.5 μl/well of complete media (DMEM containing 10% FCS) in 1536 well solid bottom white plates and 20 nl/well compound in DMSO solution or controls was added. Following 30 minute incubation at room temperature, 2.5 μl/well of labeled d2 cAMP and 2.5 μl/well of anti-cAMP antibody (both diluted 1:20 in lysis buffer) were added to each well using a flying reagent dispenser (Aurora Discovery, San Diego). Plates were measured using the Envision plate reader (PerkinElmer, Boston, Mass.) with excitation at 330 nm and emissions of 615 nm and 660 nm. Compound Preparation. […] Data Analysis. […] The EC50 values of compounds were calculated from the concentration-response curves by nonlinear regression analysis using Prism software (GraphPad Software, San Diego, Calif.). Confirmatory cAMP Assay and Test for Selectivity Towards TSHR 50,000 cells/well were plated in complete media (DMEM containing 10% FCS) in 96 well plates. […] Following aspiration of the medium after incubation with compounds, cells were lysed using lysis buffer of the cAMP-Screen Direct™ System (Applied Biosystems, Cat # CSD200). The cAMP content of the cell lysate was determined using the manufacturer's protocol. […] Below is a List of Compounds that were Assayed via the Homogeneous Time Resolved Fluorescence (HTRF) cAMP Assay.

T1 sequence (P16473 21-764): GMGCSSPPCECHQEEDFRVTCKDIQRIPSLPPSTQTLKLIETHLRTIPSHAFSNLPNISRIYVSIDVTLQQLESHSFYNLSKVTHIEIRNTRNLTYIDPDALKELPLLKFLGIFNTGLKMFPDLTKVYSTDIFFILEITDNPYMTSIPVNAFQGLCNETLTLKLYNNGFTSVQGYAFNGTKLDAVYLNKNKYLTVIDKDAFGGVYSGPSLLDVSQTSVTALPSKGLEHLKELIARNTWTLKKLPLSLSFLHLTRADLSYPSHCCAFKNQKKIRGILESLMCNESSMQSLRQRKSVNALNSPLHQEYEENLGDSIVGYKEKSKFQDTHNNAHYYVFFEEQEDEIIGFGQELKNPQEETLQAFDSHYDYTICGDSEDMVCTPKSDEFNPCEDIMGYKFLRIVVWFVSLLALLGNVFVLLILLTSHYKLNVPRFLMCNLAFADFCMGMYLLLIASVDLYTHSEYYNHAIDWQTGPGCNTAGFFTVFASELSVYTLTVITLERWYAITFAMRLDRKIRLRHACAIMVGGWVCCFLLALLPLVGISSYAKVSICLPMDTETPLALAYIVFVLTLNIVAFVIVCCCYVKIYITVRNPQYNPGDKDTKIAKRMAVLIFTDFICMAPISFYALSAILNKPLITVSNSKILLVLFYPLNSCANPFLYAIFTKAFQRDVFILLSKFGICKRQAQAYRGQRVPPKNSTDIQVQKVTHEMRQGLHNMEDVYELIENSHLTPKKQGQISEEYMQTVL

Compound | Maximum Activity compared to TSH | AC50 (HTRF cAMP, read-out: AC50) [µM] | Emax [%] | AC50 (AC50, HTRF cAMP) [µM]
COc1ccc(C2Nc3ccccc3C(=O)N2Cc2ccccc2)cc1COc1ccc(NC(C)=O)cc1 (single isomer, unassigned) [Structure 2] | 217.29 | – | – | 11.2
COc1ccc(C2Nc3ccccc3C(=O)N2Cc2ccccc2)cc1COc1ccc(NC(C)=O)cc1 (single isomer, unassigned) [Structure 4] | 171.91 | – | – | 7.08
COc1ccc(C2Nc3ccccc3C(=O)N2Cc2ccccc2)cc1COc1ccc(NC(C)=O)cc1 (single isomer, unassigned) [Structure 7] | 152.47 | – | – | 8.91
COc1ccc(C2Nc3ccccc3C(=O)N2Cc2ccccc2)cc1COc1ccc(NC(C)=O)cc1 (single isomer, unassigned) [Structure 24] | 159.76 | – | – | 7.08
COc1ccc(C2Nc3ccccc3C(=O)N2Cc2ccccc2)cc1COc1ccc(NC(C)=O)cc1 (single isomer, unassigned) [Structure 25] | 207.56 | – | – | 8.91
COc1ccc(C2Nc3ccccc3C(=O)N2Cc2ccccc2)cc1COc1ccc(NC(C)=O)cc1 (single isomer, unassigned) [Structure 26] | 217.05 | – | – | 10
COc1ccc(C2Nc3ccccc3C(=O)N2Cc2ccccc2)cc1COc1ccc(NC(C)=O)cc1 (single isomer, unassigned) [Structure 37] | 104.22 | – | – | 8.91
COc1ccc(C2Nc3ccccc3C(=O)N2Cc2ccccc2)cc1COc1ccc(NC(C)=O)cc1 (single isomer, unassigned) [Structure 49] | 134.24 | – | – | 3.55
COc1ccc(C2Nc3ccccc3C(=O)N2Cc2ccccc2)cc1COc1ccc(NC(C)=O)cc1 (single isomer, unassigned) [Structure 51] | 174.87 | – | – | 15.8
COc1ccc(C2Nc3ccccc3C(=O)N2Cc2ccccc2)cc1COc1ccc(NC(C)=O)cc1 (single isomer, unassigned) [Structure 55] | 194.91 | – | – | 7.94
COc1ccc(C2Nc3ccccc3C(=O)N2Cc2ccccc2)cc1COc1ccc(NC(C)=O)cc1 (single isomer, unassigned) [Structure 56] | 110.90 | – | – | 11.2
COc1ccc(C2Nc3ccccc3C(=O)N2Cc2ccccc2)cc1COc1ccc(NC(C)=O)cc1 (single isomer, unassigned) [Structure 62] | 241.92 | – | – | 7.08
COc1ccc(C2Nc3ccccc3C(=O)N2Cc2ccccc2)cc1COc1ccc(NC(C)=O)cc1 (single isomer, unassigned) [Structure 63] | 166.46 | – | – | 5.01
COc1ccc(C2Nc3ccccc3C(=O)N2Cc2ccco2)cc1COc1ccc(NC(C)=O)cc1 (centres unmarked) [Structure 1] | 159.24 | 12.6 | – | –
COc1ccc(CN2C(=O)c3ccccc3NC2c2ccc(OC)c(COc3ccc(NC(C)=O)cc3)c2)cc1 (centres unmarked) [Structure 3] | 93.95 | 4.47 | – | –
COc1ccc(CN(Cc2ccccc2)C(=O)c2ccccc2)cc1COc1ccc(NC(C)=O)cc1 [Structure 5] | 174.77 | 15.8 | – | –
COc1ccc(C2Nc3ccccc3C(=O)N2Cc2ccco2)cc1COc1ccc(NC(C)=O)cc1 (centres unmarked) [Structure 6] | 180.81 | 17.8 | – | –
COc1ccc(C2Nc3ccccc3C(=O)N2Cc2ccco2)cc1COc1ccc(NC(C)=O)cc1 (centres unmarked) [Structure 8] | 115.96 | 14.1 | – | –
COc1ccc(C2Nc3ccccc3C(=O)N2Cc2ccco2)cc1COc1ccc(NC(C)=O)cc1 (centres unmarked) [Structure 9] | 115.62 | 17.8 | – | –
COc1ccc(C2Nc3ccc(NC(C)=O)cc3C(=O)N2Cc2cccc(Cl)c2)cc1COc1ccc(NC(C)=O)cc1 (centres unmarked) [Structure 10] | – | 7.94 | 122 | –
COc1ccc(C2Nc3ccccc3C(=O)N2Cc2cccc(Cl)c2)cc1COc1ccc(NC(C)=O)cc1 (centres unmarked) [Structure 11] | 113.94 | 3.16 | – | –
COc1ccc(C2Nc3ccccc3C(=O)N2Cc2cccc(Cl)c2)cc1COc1ccc(NC(C)=O)cc1 (centres unmarked) [Structure 12] | 91.43 | 3.98 | – | –
COc1ccc(C2Nc3ccccc3C(=O)N2Cc2cccc(-c3ccccc3)c2)cc1COc1ccc(NC(C)=O)cc1 (centres unmarked) [Structure 13] | 103.29 | 2.24 | – | –
COc1ccc(C2Nc3ccccc3C(=O)N2Cc2ccco2)cc1COc1ccc(NC(C)=O)cc1 (centres unmarked) [Structure 14] | 104.66 | 11.2 | – | –
COc1ccc(C(=O)N(Cc2ccccc2)Cc2ccc(OC)c(COc3ccc(NC(C)=O)cc3)c2)cc1 [Structure 15] | – | 12.6 | 123 | –
CCCCN1C(=O)c2ccccc2NC1c1ccc(OC)c(COc2ccc(NC(C)=O)cc2)c1 (centres unmarked) [Structure 16] | 97.95 | 20 | – | –
COc1ccc(-c2nc3ccccc3c(=O)n2Cc2ccccc2)cc1COc1ccc(NC(C)=O)cc1 [Structure 17] | 93.46 | 10 | – | –

More lines, main results first:

Maximum Activity compared to TSH | AC50 (HTRF cAMP, read-out: AC50) [µM] | Emax [%] | Compound | AC50 (AC50, HTRF cAMP) [µM]
215.89 | 6.31 | – | COc1cccc(CN2C(=O)c3ccccc3NC2c2ccc(OC)c(COc3ccc(NC(C)=O)cc3)c2)c1 (centres unmarked) [Structure 18] | –
142.18 | 15.8 | – | COc1ccc(C2Nc3ccccc3C(=O)N2Cc2ccco2)cc1COc1ccc(NC(C)=O)cc1 (centres unmarked) [Structure 19] | –
156.28 | 14.1 | – | COc1ccc(C2Nc3ccccc3C(=O)N2Cc2ccco2)cc1COc1ccc(NC(C)=O)cc1 (centres unmarked) [Structure 20] | –
236.35 | 25.1 | – | COc1ccc(CN(Cc2ccccc2)C(=O)c2ccccc2N)cc1COc1ccc(NC(C)=O)cc1 [Structure 21] | –
463.89 | 7.94 | – | COc1ccc(C2Nc3ccccc3C(=O)N2Cc2ccccc2)cc1CSc1ccc(NC(C)=O)cc1 (centres unmarked) [Structure 22] | –
165.50 | 15.8 | – | COc1ccc(C2Nc3ccccc3C(=O)N2Cc2ccco2)cc1COc1ccc(NC(C)=O)cc1 (centres unmarked) [Structure 23] | –
123.52 | 4.47 | – | COc1ccc(C2Nc3ccccc3C(=O)N2Cc2cccc(C(F)(F)F)c2)cc1COc1ccc(NC(C)=O)cc1 (centres unmarked) [Structure 27] | –
405.10 | 10 | – | COc1ccc(C2Nc3cccc(O)c3C(=O)N2Cc2ccccc2)cc1COc1ccc(NC(C)=O)cc1 (centres unmarked) [Structure 28] | –
– | 17.8 | 139 | COc1ccc(C2Cc3ccccc3C(=O)N2Cc2ccco2)cc1COc1ccc(NC(C)=O)cc1 (centres unmarked) [Structure 29] | –
63.65 | 3.16 | – | COc1ccc(CN2C(=O)c3ccccc3NC2c2ccc(OC)c(COc3ccc(NC(C)=O)cc3)c2)cc1 (centres unmarked) [Structure 30] | –
153.40 | 11.2 | – | COc1ccc(CN(Cc2ccccc2)C(=O)c2ccccc2)cc1COc1ccc(NC(C)=O)cc1 [Structure 31] | –
137.62 | 15.8 | – | COc1ccc(C2Nc3ccc(NC(C)=O)cc3C(=O)N2Cc2ccccc2)cc1COc1ccc(NC(C)=O)cc1 (centres unmarked) [Structure 32] | –
– | 17.8 | 169 | COc1ccc(-c2nc3ccccc3c(=O)n2Cc2ccco2)cc1COc1ccc(NC(C)=O)cc1 [Structure 33] | –
